The source of these data is article PMC9668830, “Identification of fungal lignocellulose-degrading biocatalysts secreted by Phanerochaete chrysosporium via activity-based protein profiling” (Communications Biology, 2022).

One assay deals with T1, Phchr2|2915237.
T1 construct: gene phchr2_2915237; synthetic gene from JGI model, secreted by Aspergillus oryzae, C-terminal 6xHis tag kept, Ni-purified
Description: discontinuous pNP release at […] nm. The assay is classed as biochemical, Phanerodontia chrysosporium. The conditions noted are these: phosphate citrate buffer; pH and temperature of the kinetics not restated (optimum pH 5, 60 °C).

The target in the next assay is T2, WP_074995790 (Streptomyces misionensis, UniProt A0A1H5HEE9).
T2 construct: gene SAMN04490357_7452; synthetic gene without secretion signal, pET20b, C-terminal His-tag, E. coli Rosetta DE3, Ni-IDA purified
T2 sequence (A0A1H5HEE9 63-752): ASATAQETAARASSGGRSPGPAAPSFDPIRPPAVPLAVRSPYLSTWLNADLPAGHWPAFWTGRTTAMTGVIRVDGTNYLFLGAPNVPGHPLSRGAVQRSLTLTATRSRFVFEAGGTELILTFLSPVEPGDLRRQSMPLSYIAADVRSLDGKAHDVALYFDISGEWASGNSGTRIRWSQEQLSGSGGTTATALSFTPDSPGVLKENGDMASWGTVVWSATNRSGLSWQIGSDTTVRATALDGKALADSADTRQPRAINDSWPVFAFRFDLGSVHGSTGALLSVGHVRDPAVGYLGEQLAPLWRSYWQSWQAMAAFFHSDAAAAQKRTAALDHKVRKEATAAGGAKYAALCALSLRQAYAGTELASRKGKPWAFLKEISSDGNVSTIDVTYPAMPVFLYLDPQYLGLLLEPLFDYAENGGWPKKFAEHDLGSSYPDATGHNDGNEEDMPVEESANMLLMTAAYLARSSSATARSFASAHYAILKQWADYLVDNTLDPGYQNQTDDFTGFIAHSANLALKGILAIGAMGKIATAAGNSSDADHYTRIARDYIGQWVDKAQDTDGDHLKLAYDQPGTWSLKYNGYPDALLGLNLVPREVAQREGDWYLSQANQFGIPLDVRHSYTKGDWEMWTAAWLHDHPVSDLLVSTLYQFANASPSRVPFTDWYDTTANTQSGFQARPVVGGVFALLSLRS
Description: pNP release at […] nm. The assay is classed as biochemical. As to conditions: 200 µM substrate, phosphate citrate buffer; only specific activity reported.

The test system of the next assay is T3, Phchr2|126075.
T3 construct: gene phchr2_126075; filtered culture supernatant assayed
Description: continuous pNP release at […] nm, filtered K. lactis culture supernatant. Format: biochemical, Phanerodontia chrysosporium. The conditions noted are these: 50 mM TRIS pH 8, 20 mM KCl, 40 °C.

For the compound `O=[N+]([O-])c1ccc(O[C@@H]2O[C@H](CO)[C@@H](O)[C@H](O)[C@H]2O)cc1` [pNP-Glc], the Michaelis constant (Km) in the assay on Phchr2|2915237 came to 1820 µM.
Consider `O=[N+]([O-])c1ccc(O[C@@H]2OC[C@@H](O)[C@H](O)[C@H]2O)cc1` [pNP-Xyl], for which the Km with Phchr2|2915237 turned out to be 6980 µM.
For the compound `O=[N+]([O-])c1ccc(O[C@@H]2O[C@H](CO)[C@H](O)[C@H](O)[C@H]2O)cc1` [pNP-Gal], the “pNP release at 410 nm” value on WP_074995790 was “we were able to detect a weak β-galactosidase activity”.
For the compound `CC(=O)Oc1ccc([N+](=O)[O-])cc1` [pNP-acetate], the Km in the assay with Phchr2|126075 was determined as 670 µM.
